Reference: patent publication US6265390A, “Methods for expressing nucleic acid sequences using nucleic acid constructs comprising hypoxia response elements” (Oxford Biomedica (UK) Limited, priority 1994, dated 2001)

What was measured:
[1] = test system: endogenous human PGK-1 gene expression in HepG2 cells; test: RNA analysis of endogenous PGK-1 gene expression; format: cell-based; conditions: 100 μM, 16 hours, hypoxia 1% O2
Experimental: (§1) The cell lines used were HepG2 (human hepatoma), HeLa (human cervical carcinoma) and L cells (mouse fibroblast) grown in minimal essential medium, with Earle's salts, supplemented with fetal bovine serum (10%), glutamine (2 mM), penicillin (50 units/ml) and streptomycin sulfate (50 μg/ml). For assay of endogenous gene expression, and for preparation of nuclear extracts, cells were grown to approximately 70% confluence. […]
(§2) RNA was extracted, analysed by RNase protection, and quantitated as previously described (Pugh et al 1991). […]
(§3) For assay of endogenous PGK-1 gene expression 50 μg of RNA extracted from HepG2 cells was hybridised with a riboprobe which consisted of 121 bp from the 5' end of the exon 3 of the human PGK-1 gene, together with 68 bp of adjacent intron (obtained by PCR of genomic DNA and cloning by standard methods). […] In these experiments a small quantity (0.5 μg) of RNA extracted from K562 cells (a human […] cell line which expresses a globin mRNA abundantly) was added to each sample before hybridisation, and the samples were probed concurrently with the α97 probe in addition to the PGK-1 or LDH-A probe. […]

[2] = test system: endogenous mouse LDH-A gene expression in L cells; test: RNA analysis of endogenous LDH-A gene expression; format: cell-based; conditions: 100 μM, 16 hours, hypoxia 1% O2
Experimental: as §1, §2, §3

[3] = test system: MCF-7(-4) cells transfected with thymidine phosphorylase gene; test: Drug sensitivity of thymidine phosphorylase transfectant -4; format: cell-based, human; conditions: survival curve, FIG. 3
Excerpt: (§4) Human breast cancer cells of the cell line MCF-7 were transfected with a gene for thymidine phosphorylase. […] The gene is suitable for linking up with hypoxically-inducible promoters/enhancers.
(§5) Results of drug sensitivity experiments are shown in FIGS. 3-7. -7, -4, -12, +4 and +16 are all derivatives of MCF-7 which have been transfected with the thymidine phosphorylase gene.
(§6) Note that there is a log scale and therefore the IC50 (the concentration of drug required to inhibit growth by 50%) is more than 100 times lower for the transfectants -12 and -4. Therefore, the expression of one gene at a higher level can make these cells 100 times more sensitive to chemotherapy. Clearly there is variation depending on the level of expression and therefore we want to be able to switch on as high as possible. […] This means that it is the activation step that is important rather than downstream events.

[4] = test system: MCF-7 wild-type and thymidine phosphorylase transfectant clones; test: Drug sensitivity of clones -4, -7, -12, -16, +4 compared with wild type; format: cell-based, human; conditions: FIG. 6
Excerpt: as §4, §5, §6

[5] = test system: control (Wt) non-transfected HT1080 cells and transfectant cells (9-3C, M3); test: Drug sensitivity after hypoxic or normoxic treatment, control and transfectants; format: cell-based; conditions: 16 hours exposure, 24 hours drug, 96 hour growth delay
Experimental: (§7) Transfected cells (9-3C and M3) as described in Example 9 were tested for sensitivity to 5-FC. Cells were subjected to hypoxic exposure (16 hours), followed by exposure to 5-FC or 5-FU (24 hours), followed by a 96 hour growth delay.

[6] = test system: M3 cells (HT1080 transfected with cytosine deaminase under PGK-1 promoter with 3 copies of P24); test: Hypoxia-induced pro-drug sensitisation, M3 cells; format: cell-based; conditions: 16 hours hypoxic exposure, 24 hours drug, 96 hour growth delay
Experimental: The PGK-1 hypoxia response element was evaluated within the context of the PGK-1 gene promoter (M3), the 9-27 gene promoter (9-3C) and the thymidine kinase gene promoter (sTK5). […] The promoters and PGK-1 hypoxia response elements were placed upstream of genes encoding the endothelial CD2 surface protein and the negative selectable marker cytosine deaminase. The 9-27 and thymidine kinase promoters were each used with 3 copies of the P18 PGK-1 element and the PGK-1 gene promoter was used with 3 copies of the P24 PGK-1 element. Transfected cells (9-3C and M3) as described in Example 9 were tested for sensitivity to 5-FC. Cells were subjected to hypoxic exposure (16 hours), followed by exposure to 5-FC or 5-FU (24 hours), followed by a 96 hour growth delay.

[7] = test system: 9-3C cells (HT1080 transfected with cytosine deaminase under 9-27 promoter with 3 copies of P18); test: Hypoxia-induced pro-drug sensitisation, 9-3C cells; format: cell-based; conditions: 16 hours hypoxic exposure, 24 hours drug, 96 hour growth delay
Experimental: The PGK-1 hypoxia response element was evaluated within the context of the PGK-1 gene promoter (M3), the 9-27 gene promoter (9-3C) and the thymidine kinase gene promoter (sTK5).
The constructs were similar to those described in Example 7. The promoters and PGK-1 hypoxia response elements were placed upstream of genes encoding the endothelial CD2 surface protein and the negative selectable marker cytosine deaminase. The 9-27 and thymidine kinase promoters were each used with 3 copies of the P18 PGK-1 element and the PGK-1 gene promoter was used with 3 copies of the P24 PGK-1 element.
as §7

SMILES: C[C@@H]1C[C@@H]([C@H](O)CC2CC(=O)NC(=O)C2)C(=O)[C@@H](C)C1 [cycloheximide]
- effect on hypoxic induction of gene expression [1]: abrogated the response to hypoxia
- effect on hypoxic induction of gene expression [2]: abrogated the response to hypoxia

SMILES: O=c1[nH]cc(F)c(=O)[nH]1 [5FU, 5-fluorouracil]
- difference in sensitivity between WT and transfectant [3]: relatively little difference
- difference in sensitivity of the cells [4]: very little difference
- difference in sensitivity following hypoxic or normoxic treatment [5]: no significant difference

SMILES: Nc1nc(=O)[nH]cc1F [5-FC, 5-fluorocytosine]
- sensitivity post-hypoxia [6]: significantly more sensitive
- sensitivity post-hypoxia [7]: significantly more sensitive
